Patent publication US9682977B2, “Bicyclic heteroaryl indole analogues useful as ROR gamma modulators” (Glenmark Pharmaceuticals S.A., priority 2013, dated 2017)
Like-named read-outs stand apart in the source and are kept apart here.

Target: T1, GST-tagged ROR gamma ligand binding domain (LBD) (Homo sapiens, UniProt P51449)
T1 construct: purchased Invitrogen
T1 sequence (P51449 269-508 limits assumed): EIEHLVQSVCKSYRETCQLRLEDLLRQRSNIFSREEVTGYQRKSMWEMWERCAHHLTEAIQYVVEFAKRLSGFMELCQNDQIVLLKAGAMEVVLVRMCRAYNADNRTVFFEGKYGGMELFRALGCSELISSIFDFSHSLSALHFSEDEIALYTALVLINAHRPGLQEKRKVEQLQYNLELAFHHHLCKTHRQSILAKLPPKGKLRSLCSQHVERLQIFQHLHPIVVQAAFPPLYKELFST
Experiment: TR-FRET assay for ROR gamma (Lantha Screen, co-activator peptide recruitment)
Assay type: biochemical
Conditions: for inhibition at 1 µM: read-out: % inhibition at 1 μM; for inhibition at 10 µM: read-out: % inhibition at 10 μM

[1] = class symbols, from dose response curve, read-out: IC50 value
[2] = compound concentration 1 μM, TR-FRET ratio 520/495, percent of control
[3] = compound concentration 10 μM, TR-FRET ratio 520/495, percent of control

Row | SMILES | IC50 [1] [nM] | inhibition at 1 µM [2] [%] | inhibition at 10 µM [3] [%] | IC50 [nM] | inhibition at 1 µM [%] | inhibition at 10 µM [%]
1 | Cc1ccccc1Oc1nn(-c2ccc(C(=O)O)cc2)c2ccccc12 [Example 1, 4-[3-(2-Methylphenoxy)-1H-indazol-1-yl]benzoic acid] | < 50 | 90 | 96.3 | – | – | –
2 | O=C(O)c1ccc(-n2nc(Oc3ccccc3C(F)(F)F)c3ccccc32)cc1 [Example 2, 4-{3-[2-(Trifluoromethyl)phenoxy]-1H-indazol-1-yl}benzoic acid] | < 50 | 96.9 | 98.4 | – | – | –
3 | Cc1cccc(Oc2nn(-c3ccc(C(=O)O)cc3)c3ccccc23)c1 [Example 3, 4-[3-(3-Methylphenoxy)-1H-indazol-1-yl]benzoic acid] | – | 23.4 | 34.6 | – | – | –
4 | O=C(O)c1ccc(-n2nc(Oc3ccccc3)c3ccccc32)cc1 [Example 4, 4-(3-Phenoxy-1H-indazol-1-yl)benzoic acid] | – | 31.2 | 37 | – | – | –
5 | O=C(O)c1ccc(-n2nc(Oc3c(Cl)cccc3Cl)c3ccccc32)cc1 [Example 5, 4-[3-(2,6-Dichlorophenoxy)-1H-indazol-1-yl]benzoic acid] | < 50 | 98.4 | 99 | – | – | –
6 | O=C(O)c1ccc(-n2nc(Oc3c(Cl)cccc3Cl)c3ccccc32)c(F)c1 [Example 6, 4-[3-(2,6-Dichlorophenoxy)-1H-indazol-1-yl]-3-fluorobenzoic acid] | < 50 | 99.2 | 99.6 | – | – | –
7 | O=C(O)c1ccc(-n2nc(Oc3c(Cl)cccc3C(F)(F)F)c3ccccc32)c(F)c1 [Example 7, 4-{3-[2-Chloro-6-(trifluoromethyl)phenoxy]-1H-indazol-1-yl}-3-fluorobenzoic acid] | < 50 | 95.3 | 94.8 | – | – | –
8 | O=C(O)c1ccc(-n2nc(Oc3ccccc3C(F)(F)F)c3ccccc32)c(F)c1 [Example 8, 3-Fluoro-4-{3-[2-(trifluoromethyl)phenoxy]-1H-indazol-1-yl}benzoic acid] | < 50 | 96.4 | 98.2 | – | – | –
9 | O=C(O)c1ccc(-n2nc(Oc3ccc(Cl)cc3C(F)(F)F)c3ccccc32)c(F)c1 [Example 9, 4-{3-[4-Chloro-2-(trifluoromethyl)phenoxy]-1H-indazol-1-yl}-3-fluorobenzoic acid] | > 100 | 86.5 | 96.9 | – | – | –
10 | O=C(O)c1ccc(-n2nc(Oc3c(Cl)cccc3C(F)F)c3ccccc32)c(F)c1 [Example 10, 4-{3-[2-Chloro-6-(difluoromethyl)phenoxy]-1H-indazol-1-yl}-3-fluorobenzoic acid] | < 50 | 100 | 100 | – | – | –
11 | O=C(O)c1ccc(-n2nc(Oc3c(Cl)cccc3Cl)c3cccc(F)c32)c(F)c1 [Example 11, 4-[3-(2,6-Dichlorophenoxy)-7-fluoro-1H-indazol-1-yl]-3-fluorobenzoic acid] | < 50 | 98.1 | 97.8 | – | – | –
12 | O=C(O)c1ccc(-n2nc(Oc3c(Cl)cccc3C(F)F)c3cccc(F)c32)c(F)c1 [Example 12, 4-{3-[2-Chloro-6-(difluoromethyl)phenoxy]-7-fluoro-1H-indazol-1-yl}-3-fluorobenzoic acid] | < 50 | 94.4 | 95.1 | – | – | –
13 | O=C(O)c1ccc(-n2nc(Oc3c(Cl)cccc3C3CC3)c3ccccc32)c(F)c1 [Example 13, 4-[3-(2-Chloro-6-cyclopropylphenoxy)-1H-indazol-1-yl]-3-fluorobenzoic acid] | < 50 | 91.7 | 91.7 | – | – | –
14 | O=C(O)c1ccc(-n2nc(Oc3c(Cl)cccc3C3CC3)c3cccc(F)c32)c(F)c1 [Example 14, 4-[3-(2-Chloro-6-cyclopropylphenoxy)-7-fluoro-1H-indazol-1-yl]-3-fluorobenzoic acid] | < 50 | 91.4 | 91.2 | – | – | –
15 | O=C(O)c1ccc(-n2cc(C(=O)c3ccccc3F)c3ccccc32)cc1 [Example 15, 4-{3-[(2-Fluorophenyl)carbonyl]-1H-indol-1-yl}benzoic acid] | > 100 | 76.4 | 95.8 | – | – | –
16 | O=C(O)c1ccc(-n2cc(C(=O)c3c(Cl)cccc3Cl)c3ccccc32)cc1 [Example 16, 4-{3-[(2,6-Dichlorophenyl)carbonyl]-1H-indol-1-yl}benzoic acid] | – | – | – | < 50 | 96 | 97.2
17 | O=C(O)c1ccc(-n2cc(C(=O)c3ccccc3Cl)c3ccccc32)cc1 [Example 17, 4-{3-[(2-Chlorophenyl)carbonyl]-1H-indol-1-yl}benzoic acid] | – | – | – | 50 to 100 | 84.9 | 96
18 | O=C(O)c1ccc(-n2cc(C(=O)c3c(F)cccc3F)c3ccccc32)cc1 [Example 18, 4-{3-[(2,6-Difluorophenyl)carbonyl]-1H-indol-1-yl}benzoic acid] | – | – | – | 50 to 100 | 81 | 94.5
19 | O=C(O)c1ccc(-n2cc(C(=O)c3ccccc3Cl)c3ccccc32)c(F)c1 [Example 20, 4-{3-[(2-Chlorophenyl)carbonyl]-1H-indol-1-yl}-3-fluorobenzoic acid] | < 50 | 95.7 | 100 | – | – | –
20 | O=C(O)c1ccc(-n2cc(C(=O)c3c(Cl)cccc3C(F)(F)F)c3ccccc32)c(F)c1 [Example 21, 4-{3-[2-Chloro-6-(trifluoromethyl)benzoyl]-1H-indol-1-yl}-3-fluorobenzoic acid] | – | – | – | < 50 | 92.2 | 92.4
21 | O=C(O)c1ccc(-n2cc(C(=O)c3c(Cl)cccc3Cl)c3c(F)cccc32)c(F)c1 [Example 22, 4-[3-(2,6-Dichlorobenzoyl)-4-fluoro-1H-indol-1-yl]-3-fluorobenzoic acid] | – | – | – | < 50 | 96.8 | 99.3
22 | O=C(O)c1ccc(-n2cc(C(=O)c3c(Cl)cccc3Cl)c3cc(F)ccc32)c(F)c1 [Example 23, 4-[3-(2,6-Dichlorobenzoyl)-5-fluoro-1H-indol-1-yl]-3-fluorobenzoic acid] | < 50 | 98.2 | 96.7 | – | – | –
23 | O=C(O)c1ccc(-n2cc(C(=O)c3c(Cl)cccc3Cl)c3ccc(F)cc32)c(F)c1 [Example 24, 4-[3-(2,6-Dichlorobenzoyl)-6-fluoro-1H-indol-1-yl]-3-fluorobenzoic acid] | < 50 | 95.8 | 97.8 | – | – | –
24 | CN(C)C(=O)c1ccc2c(C(=O)c3c(Cl)cccc3Cl)cn(-c3ccc(C(=O)O)cc3F)c2c1 [Example 26, 4-[3-(2,6-Dichloro-benzoyl)-6-dimethylcarbamoyl-indol-1-yl]-3-fluoro-benzoic acid] | – | – | – | – | 31.3 | 33.7
25 | O=C(O)c1ccc(-n2cc(C(=O)c3c(Cl)cccc3Cl)c3cccnc32)c(F)c1 [Example 27, 4-[3-(2,6-Dichlorobenzoyl)-1H-pyrrolo[2,3-b]pyridin-1-yl]-3-fluorobenzoic acid] | < 50 | 95.6 | 97.9 | – | – | –
26 | O=C(O)c1ccc(-n2nc(C(=O)c3ccccc3)c3ccccc32)cc1 [Example 28, 4-[3-(Phenylcarbonyl)-1H-indazol-1-yl]benzoic acid] | – | 30.2 | 62.9 | – | – | –
